Active and inactive are the calls of the source. No cut-off for these calls is given here.
Assays:
Enterococcus faecalis [1] = assay: Bacteriostatic activity against planktonic cells of Enterococcus faecalis OG1RF measured by microdilution broth assay; type: functional, organism-based
[2] = Inhibition of Enterococcus faecalis OG1RF YycG autophosphorylation by Kinase-Glo luminescent kinase assay
[3] = Cytotoxicity against african green monkey Vero cells assessed as inhibition of cell growth by MTT assay; type: cell-based; settings: chlorocebus sabaeus
Enterococcus faecalis [4] = assay: Inhibition of biofilm formation of Enterococcus faecalis FB-1 assessed as inhibitory rate of formation at 100 uM for 24 hrs measured at 570 nm by crystal violet staining based spectrophotometry; type: functional
Enterococcus faecalis [5] = assay: Bactericidal activity against Enterococcus faecalis OG1RF assessed as reduction in bacterial colonies incubated for 16 to 20 hrs by microdilution broth analysis; type: functional; settings: time 16-20 hrs, read-out: MBC99.9
Enterococcus faecalis [6] = assay: Antibiofilm activity against Enterococcus faecalis FB-1 assessed as inhibition of biofilm maturation measured after 24 hr; type: functional, organism-based
[7] = Hemolytic activity against human erythrocytes at 200 uM incubated for 1 hr at 570 nm by spectrophotometry; type: ADME, tissue-based, Erythrocyte; settings: read-out: Activity
Enterococcus faecalis [8] = assay: Antimicrobial activity against Enterococcus faecalis OG1RF assessed as reduction in visible bacterial growth incubated for 16 to 20 hrs by microdilution broth assay; type: functional; settings: time 16-20 hrs
Enterococcus faecalis [9] = assay: Antibiofilm activity against Enterococcus faecalis FB-1 assessed as eradication of mature biofilm by semiquantitative microtiter assay; type: functional, organism-based
[10] = Hemolytic activity against human erythrocytes at 50 uM incubated for 1 hr at 570 nm by spectrophotometry; type: ADME, tissue-based, Erythrocyte; settings: read-out: Activity
Streptococcus agalactiae = assay: Antibacterial activity against Streptococcus agalactiae NSGC64 assessed as reduction in visible bacterial growth incubated for 16 to 20 hrs by microdilution broth assay; type: functional; settings: time 16-20 hrs
Staphylococcus aureus [11] = assay: Antibacterial activity against Staphylococcus aureus ATCC 29213 assessed as reduction in visible bacterial growth incubated for 16 to 20 hrs by microdilution broth assay; type: functional; settings: time 16-20 hrs
Enterococcus faecalis [12] = assay: Antibacterial activity against Enterococcus faecalis FB-1 assessed as reduction in visible bacterial growth incubated for 16 to 20 hrs by microdilution broth assay; type: functional; settings: time 16-20 hrs
Staphylococcus aureus [13] = assay: Antibacterial activity against Staphylococcus aureus ATCC 35556 assessed as reduction in visible bacterial growth incubated for 16 to 20 hrs by microdilution broth assay; type: functional; settings: time 16-20 hrs
[14] = system: Staphylococcus epidermidis; assay: Antibacterial activity against Staphylococcus epidermidis ATCC 35984 assessed as reduction in visible bacterial growth incubated for 16 to 20 hrs by microdilution broth assay; type: functional; settings: time 16-20 hrs
Enterococcus faecalis [15] = assay: Antibiofilm activity against Enterococcus faecalis FB-1 assessed as inhibition of biofilm infection at 25 uM by fluid shear system; type: functional, organism-based
[16] = system: Staphylococcus epidermidis; assay: Antibacterial activity against Staphylococcus epidermidis ATCC 12228 assessed as reduction in visible bacterial growth incubated for 16 to 20 hrs by microdilution broth assay; type: functional; settings: time 16-20 hrs
Enterococcus faecalis [17] = assay: Antibacterial activity against Enterococcus faecalis OG1RF assessed as reduction in visible bacterial growth incubated for 16 to 20 hrs by microdilution broth assay; type: functional; settings: time 16-20 hrs
Escherichia coli = assay: Antibacterial activity against Escherichia coli […] assessed as reduction in visible bacterial growth incubated for 16 to 20 hrs by microdilution broth assay; type: functional; settings: time 16-20 hrs
Enterococcus faecalis [18] = assay: Antibacterial activity against Enterococcus faecalis ATCC 29212 assessed as reduction in visible bacterial growth incubated for 16 to 20 hrs by microdilution broth assay; type: functional; settings: time 16-20 hrs
Enterococcus faecium = assay: Antibacterial activity against Enterococcus faecium EF16M64 assessed as reduction in visible bacterial growth incubated for 16 to 20 hrs by microdilution broth assay; type: functional; settings: time 16-20 hrs
Enterococcus faecalis [19] = assay: Antibiofilm activity against Enterococcus faecalis assessed as reduction in amount of viable biofilm-embedded bacterial cells at 50 uM measured by YTO 9/PI staining followed by confocal laser scanning microscopy; type: functional

Compound | IC50 [2] [µM] | MIC (Enterococcus faecalis [8]) [µM] | Activity (Enterococcus faecalis [1]) | CC50 [3] [µM] | inhibition at 100 µM (Enterococcus faecalis [4]) [%] | MBC (Enterococcus faecalis [5]) [µM] | Activity (Enterococcus faecalis [6]) | hemolysis at 1 h, 200 µM [7] [%] | Activity (Enterococcus faecalis [9]) | hemolysis at 1 h, 50 µM [10] [%] | Activity (Enterococcus faecalis [19]) [%] | other results
O=C(C1=C(O)C(=O)N(c2nnc(SCc3ccccc3)s2)C1c1ccccc1F)c1cc2ccccc2o1 (configuration not stated) | > 200 | > 200 | inactive | > 200 | 73.8 | > 200 | Dose-Dependent Effect | 8.31 | inactive | 4.44 |  | 
CCCCCCCCCC(=O)N[C@@H](Cc1c[nH]c2ccccc12)C(=O)N[C@H](CC(N)=O)C(=O)N[C@@H](CC(=O)O)C(=O)N[C@@H]1C(=O)NCC(=O)N[C@@H](CCCN)C(=O)N[C@@H](CC(=O)O)C(=O)N[C@H](C)C(=O)N[C@@H](CC(=O)O)C(=O)NCC(=O)N[C@H](CO)C(=O)N[C@@H]([C@H](C)CC(=O)O)C(=O)N[C@@H](CC(=O)c2ccccc2N)C(=O)O[C@@H]1C |  |  |  |  |  |  |  |  |  |  | 8.45 | 
O=C(C1=C(O)C(=O)N(c2nnc(SCc3ccc(Cl)cc3)s2)C1c1cccc(O)c1)c1cc2ccccc2o1 (configuration not stated) | 8.3 | > 200 | inactive | > 200 | 72 | > 200 | Dose-Dependent Effect | 7.81 |  | 6.26 | 27.79 | 

More lines, in order of falling IC50 [2], values ahead:

IC50 [2] [µM] | MIC (Enterococcus faecalis [8]) [µM] | Compound | Activity (Enterococcus faecalis [1]) | CC50 [3] [µM] | inhibition at 100 µM (Enterococcus faecalis [4]) [%] | MBC (Enterococcus faecalis [5]) [µM] | Activity (Enterococcus faecalis [6]) | hemolysis at 1 h, 200 µM [7] [%] | Activity (Enterococcus faecalis [9]) | hemolysis at 1 h, 50 µM [10] [%] | Activity (Enterococcus faecalis [19]) [%] | other results
27.4 | > 200 | O=C(O)COc1ccc(/C=C2/SC(=O)N(Cc3ccc(F)cc3)C2=O)cc1Br | inactive | > 200 | 83.5 | > 200 | Dose-Dependent Effect | 22.7 | inactive | 8.36 |  | MIC (Streptococcus agalactiae): > 200 µM; MIC (Staphylococcus aureus [11]): > 200 µM; MIC (Enterococcus faecalis [12]): > 200 µM; MIC (Staphylococcus aureus [13]): > 200 µM; MIC [14]: > 200 µM; Activity (Enterococcus faecalis [15]): Active; MIC [16]: > 200 µM; MIC (Enterococcus faecalis [17]): > 200 µM; MIC (Escherichia coli): > 200 µM; MIC (Enterococcus faecalis [18]): > 200 µM; MIC (Enterococcus faecium): > 200 µM
22 | > 200 | O=C(C1=C(O)C(=O)N(c2nnc(SCc3ccccc3)s2)C1c1ccccc1)c1cc2ccccc2o1 (configuration not stated) | inactive | > 200 | 72.2 | > 200 | Dose-Dependent Effect | 7.01 |  | 4.16 | 26.66 | 
